Where “and” joins values, the source holds several entries; their conditions need not be identical. Identical values can stand only once.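 A five-concentration, 48-hour dose response in 96-well plates underlies each endpoint, interpolated linearly between surrounding concentrations. GI50: concentration for 50% inhibition of growth. TGI denotes the concentration required for complete inhibition of growth.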
Key:
Assay in all cases: NCI tumour cell line growth inhibition, 48 h
NCI-H226 lung = test system: NCI-H226 lung
SF-295 CNS = test system: SF-295 CNS
MDA-MB-435 = test system: MDA-MB-435
SK-MEL-28 melanoma = test system: SK-MEL-28 melanoma
HT29 colon = test system: HT29 colon
RPMI-8226 leukemia = test system: RPMI-8226 leukemia
UACC-62 melanoma = test system: UACC-62 melanoma
HCT-116 colon = test system: HCT-116 colon
RXF 393 renal = test system: RXF 393 renal
HCT-15 colon = test system: HCT-15 colon
SK-OV-3 ovarian = test system: SK-OV-3 ovarian

Compound | TGI (NCI-H226 lung) | TGI (SF-295 CNS) | GI50 (MDA-MB-435) | TGI (MDA-MB-435) | GI50 (SK-MEL-28 melanoma) | TGI (SK-MEL-28 melanoma) | TGI (HT29 colon) | TGI (RPMI-8226 leukemia) | TGI (UACC-62 melanoma) | TGI (HCT-116 colon) | TGI (RXF 393 renal) | TGI (HCT-15 colon) | TGI (SK-OV-3 ovarian)
CC1OC(OC2C(OC(=O)[C@]34CCC(C)(C)C[C@H]3C3=CC[C@@H]5[C@@]6(C)CC[C@H](OC7OC(C(=O)O)C(O)C(O)C7O)C(C)(C)[C@@H]6CC[C@@]5(C)[C@]3(C)C[C@H]4O)OCC(O)C2O)C(O)C(O)C1OC1OCC(O)C(O)C1O (some centres undefined) | 19.2 µM and 25.9 µM | 29.6 µM and 22.1 µM | 16 µM and 5.32 µM | 30.3 µM and 18.2 µM | 14.9 µM and 7.34 µM | 29.1 µM and 22 µM | 20.2 µM and 17 µM | 30.4 µM and 94 µM | 32.7 µM and 30.1 µM | 28.1 µM and 22.1 µM | 35.4 µM and 31.6 µM | 31.6 µM and 33.7 µM | 33.1 µM and 32 µM
CCn1cc2c(=O)n3ncn(-c4ccc(Br)cc4)c3nc2n1 | > 100 µM | > 100 µM |  | > 100 µM |  | > 100 µM | > 100 µM | > 100 µM | > 100 µM | > 100 µM | > 100 µM | > 100 µM | > 100 µM
O=c1nc2n3c4c(cccc4nc-2c(=O)[nH]1)CCC3 | > 100 µM | > 100 µM |  | > 100 µM |  | > 100 µM | > 100 µM | > 100 µM | > 100 µM | > 100 µM | > 100 µM | > 100 µM | > 100 µM
CC1=C(C(=O)OC2CC3CCC2(C)C3(C)C)C2Nc3ccccc3N(C)C2O1 (centres undefined) | 39.3 µM | 3.04 µM |  | 3.13 µM |  | 16 µM | 3.08 µM | 6.78 µM | 4.29 µM | 7.36 µM | 18.5 µM | 5.6 µM | 14.5 µM
CN(C)C(C1=C(O)C(c2ccccc2)N(c2ccccc2)C1=O)N1CCOCC1 (centres undefined) | > 10 µM | > 10 µM |  | > 10 µM |  | > 10 µM | > 10 µM | > 10 µM | > 10 µM | > 10 µM | > 10 µM | > 10 µM | > 10 µM
COc1cccc(/C=N/n2c(Cc3ccccc3)n[nH]c2=O)c1 | > 25.6 µM | > 100 µM |  | > 100 µM |  | > 100 µM | > 100 µM | > 100 µM | > 100 µM | > 100 µM | > 100 µM | > 100 µM | > 100 µM
Cc1ccc2c(c1)C(=C(C#N)C#N)CCCS2(=O)=O | > 100 µM | > 100 µM |  | > 100 µM |  | > 100 µM | > 100 µM | > 100 µM | > 100 µM | > 100 µM | > 100 µM | > 100 µM | > 100 µM
CCOCCOCCOCc1nc(C#N)c(N)o1 | > 100 µM | > 100 µM |  | > 100 µM |  | > 100 µM | > 100 µM | > 100 µM | > 100 µM | > 100 µM | > 100 µM | > 100 µM | > 100 µM
CN1C(=O)C2(C)SC1(c1ccccc1)C1C(=O)N(c3ccccc3)C(=O)C12 (centres undefined) | > 100 µM | > 100 µM |  | > 100 µM |  | > 100 µM | > 100 µM | > 100 µM | > 100 µM | > 100 µM | > 100 µM | > 100 µM | > 100 µM
N#CC12C(=O)NC(=O)C1(C#N)C1C=CC2CC1 (centres undefined) | > 100 µM | > 100 µM |  | > 100 µM |  | > 100 µM | > 100 µM | > 100 µM | > 100 µM | > 100 µM | > 100 µM | > 100 µM | > 100 µM
CCOc1cc(C2CC(c3ccc(NS(=O)(=O)c4cc([N+](=O)[O-])ccc4C)cc3)=NN2S(=O)(=O)c2cc([N+](=O)[O-])ccc2C)ccc1O (centres undefined) | > 100 µM | > 100 µM |  | > 100 µM |  | > 100 µM | > 100 µM | > 100 µM |  | > 100 µM | 70.7 µM | > 100 µM | > 100 µM
NC1N=C(c2ccc(Cl)cc2)C2=C(N1)c1ccccc1CC2 (centres undefined) | 54.3 µM | > 100 µM |  | > 22.6 µM |  | > 100 µM | 28.4 µM | 12.2 µM | > 100 µM | > 56.9 µM | 50.1 µM | > 100 µM | > 100 µM
CCN1CCC(O)(c2ccc(Oc3ccc(Cl)cc3)cc2)C(C(=O)c2ccc(Oc3ccc(Cl)cc3)cc2)C1 (centres undefined) | 34.5 µM | 27.4 µM |  | 38.8 µM |  | 58.6 µM | 17.7 µM | 10.9 µM | 24.8 µM | 12.6 µM | 46.8 µM | 19.9 µM | 38.9 µM
N#CC12C(=O)N3C(=NC(c4ccco4)NC3c3ccco3)C1(C#N)C(c1ccco1)NC1=C2CCCC1 (centres undefined) | > 100 µM | > 100 µM |  | > 100 µM |  | > 100 µM | > 100 µM | > 100 µM | > 100 µM | > 100 µM | > 100 µM | > 100 µM | > 100 µM
CN=C1Nc2ccccc2C(=O)N2CSCC12 (centres undefined) | > 100 µM | > 100 µM |  | > 100 µM |  | > 100 µM | > 100 µM | > 100 µM | > 100 µM | > 100 µM | > 100 µM | > 100 µM | > 100 µM
FC1(F)[Se]C2C3CCC(C3)C2C1(F)F (centres undefined) | > 100 µM | > 100 µM |  | > 100 µM |  | > 100 µM |  | > 100 µM | > 100 µM | > 100 µM | > 100 µM | > 100 µM | > 100 µM
O=c1c2cc(-c3ccccc3)cnc2sn1-c1ccc(Br)cc1 | > 100 µM | > 100 µM |  | > 100 µM |  | > 100 µM | > 100 µM | > 100 µM | > 100 µM | > 100 µM | > 100 µM | > 100 µM | > 100 µM
CC1=NN(c2nc(N)nc(CN3CCOCC3)n2)C(C)(C)C1 | > 100 µM | > 100 µM |  | > 100 µM |  | > 100 µM | > 100 µM | > 100 µM | > 100 µM | > 100 µM | > 100 µM | > 100 µM | > 100 µM
COC(=O)[C@]12CC3C=CC1N(C3)C(CBr)c1c2n(S(=O)(=O)c2ccccc2)c2ccccc12 (some centres undefined) | > 100 µM | > 100 µM |  | > 100 µM |  | > 100 µM | > 100 µM | 23.5 µM | > 100 µM | > 100 µM | > 100 µM | > 100 µM | > 100 µM

From PubChem BioAssay (NCI)
